Source: ChEMBL document CHEMBL1287669, “Inhibitors selective for HDAC6 in enzymes and cells” (Bioorg Med Chem Lett, 2010)
The source made the active and inactive calls. The rule behind the calls is not given here.

Assays:
[1] = molecular target: T1, Protein deacetylase HDAC6 (Homo sapiens) (UniProt Q9UBN7); assay: Inhibition of recombinant human HDAC6 at 1 uM using Boc-Lys(Ac)-AMC as substrate by fluorometric analysis
T1 sequence (whole entry): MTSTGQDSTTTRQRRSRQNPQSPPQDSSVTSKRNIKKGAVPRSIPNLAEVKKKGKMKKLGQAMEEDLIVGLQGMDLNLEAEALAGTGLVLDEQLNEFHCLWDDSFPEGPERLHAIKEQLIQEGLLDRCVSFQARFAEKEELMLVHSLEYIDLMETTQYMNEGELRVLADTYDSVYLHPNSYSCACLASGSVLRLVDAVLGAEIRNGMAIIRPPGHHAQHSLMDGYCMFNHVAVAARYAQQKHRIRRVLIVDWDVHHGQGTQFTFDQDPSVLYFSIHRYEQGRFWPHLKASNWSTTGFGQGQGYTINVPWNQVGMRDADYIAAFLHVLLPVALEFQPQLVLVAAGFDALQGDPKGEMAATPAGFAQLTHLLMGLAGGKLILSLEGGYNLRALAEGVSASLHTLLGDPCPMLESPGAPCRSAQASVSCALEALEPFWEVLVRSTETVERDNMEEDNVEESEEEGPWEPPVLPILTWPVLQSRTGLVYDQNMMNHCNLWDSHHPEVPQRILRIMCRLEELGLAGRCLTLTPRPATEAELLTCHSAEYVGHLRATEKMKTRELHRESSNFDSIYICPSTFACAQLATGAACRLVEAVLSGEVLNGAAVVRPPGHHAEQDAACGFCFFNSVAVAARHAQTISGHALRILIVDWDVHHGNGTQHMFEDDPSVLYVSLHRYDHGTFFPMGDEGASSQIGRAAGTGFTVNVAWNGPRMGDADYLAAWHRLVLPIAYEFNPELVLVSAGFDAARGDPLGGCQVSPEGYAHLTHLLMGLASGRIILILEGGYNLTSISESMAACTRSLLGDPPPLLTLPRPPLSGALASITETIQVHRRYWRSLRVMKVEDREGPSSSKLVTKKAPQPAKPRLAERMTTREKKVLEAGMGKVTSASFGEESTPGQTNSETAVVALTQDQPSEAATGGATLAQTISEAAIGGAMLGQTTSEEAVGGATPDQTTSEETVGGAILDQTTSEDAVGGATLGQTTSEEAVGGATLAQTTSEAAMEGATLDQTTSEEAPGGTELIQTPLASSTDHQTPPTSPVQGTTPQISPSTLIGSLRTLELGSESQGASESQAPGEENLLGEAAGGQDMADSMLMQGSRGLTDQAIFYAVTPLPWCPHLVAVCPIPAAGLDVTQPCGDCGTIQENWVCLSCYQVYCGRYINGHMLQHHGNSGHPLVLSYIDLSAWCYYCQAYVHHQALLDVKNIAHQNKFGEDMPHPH

[2] = molecular target: T2, Protein deacetylase HDAC6 (Homo sapiens, UniProt Q9UBN7); assay: Inhibition of recombinant human HDAC6 using Boc-Lys(Ac)-AMC as substrate by fluorometric analysis
T2 sequence (Q9UBN7 whole entry): T1 sequence (whole entry)

[3] = molecular target: T2, Protein deacetylase HDAC6; assay: Inhibition of recombinant human HDAC6 using Ac-RHKK(Ac)-ACC as substrate by fluorometric analysis
Histone deacetylase 1 [4] = molecular target: T3, Histone deacetylase 1 (Homo sapiens, UniProt Q13547); assay: Inhibition of recombinant human HDAC1 using Ac-RHKK(Ac)-ACC as substrate by fluorometric analysis
T3 sequence (Q13547 whole entry): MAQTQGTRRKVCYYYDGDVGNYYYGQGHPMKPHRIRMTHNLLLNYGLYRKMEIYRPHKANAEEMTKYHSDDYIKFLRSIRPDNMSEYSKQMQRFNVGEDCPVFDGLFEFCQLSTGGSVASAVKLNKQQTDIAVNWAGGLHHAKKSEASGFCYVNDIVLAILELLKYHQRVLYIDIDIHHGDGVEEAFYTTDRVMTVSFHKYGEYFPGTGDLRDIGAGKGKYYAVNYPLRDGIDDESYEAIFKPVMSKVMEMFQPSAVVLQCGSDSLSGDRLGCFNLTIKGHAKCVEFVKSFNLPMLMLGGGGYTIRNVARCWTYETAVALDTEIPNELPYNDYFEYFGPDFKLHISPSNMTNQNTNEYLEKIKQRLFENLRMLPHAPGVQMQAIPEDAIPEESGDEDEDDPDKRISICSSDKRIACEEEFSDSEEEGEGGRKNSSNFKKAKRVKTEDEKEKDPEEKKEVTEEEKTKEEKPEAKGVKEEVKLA

Histone deacetylase 1 [5] = molecular target: T3, Histone deacetylase 1; assay: Inhibition of recombinant human HDAC1 using Cbz-Lys(TFAc)-AMC as substrate by fluorometric analysis
Homo sapiens = species: Homo sapiens; assay: Selectivity index, IC50 for recombinant human HDAC6 to IC50 for recombinant human HDAC1
Histone deacetylase 1 [6] = molecular target: T3, Histone deacetylase 1; assay: Inhibition of human HDAC1 in PMA-differentiated THP1 cells assessed as hyperacetylation of histone H3 after 4 hrs by Western blotting; type: cell-based; details: THP-1

SMILES | inhibition [1] | IC50 [2] | IC50 (Histone deacetylase 1 [5]) | also measured
O=C(O)CCCCC[C@H](NC(=O)OCc1ccccc1)C(=O)NC1CCCC1 | 40% |  |  | 
CC(C)(C)OC(=O)N[C@@H](CCCCCCS)C(=O)NC1CCCC1 | 60% |  |  | 
O=C(CCCCCn1c2ccccc2c2ccccc21)NO |  |  |  | IC50 [3]: 41 nM; IC50 (Histone deacetylase 1 [4]): 3070 nM; Ratio IC50 (Homo sapiens): 74
COC(=O)CCCCC[C@H](NC(=O)OCc1ccccc1)C(=O)NC1CCCC1 | 65% |  |  | 
CC(C)(C)OC(=O)Nc1ccc(-c2cc(C(=O)NCCCCCCC(=O)NO)no2)cc1 |  |  | 340 nM | IC50 (Histone deacetylase 1 [4]): 3570 nM
O=C(O)CCCC[C@H](NC(=O)OCc1ccccc1)C(=O)NC1CCCC1 | 20% |  |  | 
CN(C)c1ccc(C(=O)N[C@@H](CCCCCC(=O)NO)C(=O)Nc2cccc3cccnc23)cc1 |  | 943 nM | 21 nM | 
O=C(CCCCC[C@H](NC(=O)c1cc2ccccc2[nH]1)C(=O)Nc1cccc2cccnc12)NO |  | 107 nM | 48 nM | 

Continued, in another order:

inhibition [1] | IC50 [2] | IC50 (Histone deacetylase 1 [5]) | SMILES | also measured
45% |  |  | CC(C)(C)OC(=O)N[C@@H](CCCCCC(=O)O)C(=O)NC1CCCC1 | 
99% | 26 nM | 1420 nM | CC(C)(C)OC(=O)N[C@@H](CCCCCC(=O)NO)C(=O)NC1CCCC1 | IC50 [3]: 27 nM; IC50 (Histone deacetylase 1 [4]): 3570 nM
40% |  |  | COC(=O)CCCC[C@H](NC(=O)OC(C)(C)C)C(=O)NC1CCCC1 | 
3% |  |  | CC(C)(C)OC(=O)N[C@@H](CCCCCCO)C(=O)NC1CCCC1 | 
60% |  |  | COC(=O)CCCCC[C@H](NC(=O)OC(C)(C)C)C(=O)NC1CCCC1 | 
80% | 240 nM | > 10000 nM | CC(C)(C)OC(=O)N[C@@H](CCCCCO)C(=O)NC1CCCC1 | 
50% |  |  | CC(C)(C)OC(=O)N[C@@H](CCCCO)C(=O)NC1CCCC1 | 
98% | 54 nM | 1730 nM | CC(C)(C)OC(=O)N[C@@H](CCCCCS)C(=O)NC1CCCC1 | inhibition (Histone deacetylase 1 [6]): Active
